Test results published in patent US4459290A, “C-23-Modified derivatives of OMT, pharmaceutical compositions and method of use” (priority 1982, dated 1984).
In brackets after ≈: the same amount, converted by molar mass. Like-named read-outs stand apart in the source and are kept apart here.

Tests used:
Escherichia coli EC14 = experiment: MIC, standard agar-dilution assay (Table V); type: cell-based; details: Escherichia coli
Method in brief: (§1)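 Growth inhibition in liquid medium, in a routine microtiter broth-dilution series, gave the MIC against staphylococci and pasteurellae; the gram-negative enteric strain was tested by conventional agar dilution instead.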

Escherichia coli N10 = experiment: MIC, standard agar-dilution assay (Table V); type: cell-based; details: Escherichia coli
Method in brief: as §1

[1] = tested on: Klebsiella pneumoniae KAE; experiment: MIC, standard agar-dilution assay (Table V); type: cell-based; details: Klebsiella pneumoniae
Method in brief: as §1

Shigella sonnei N9 = experiment: MIC, standard agar-dilution assay (Table V); type: cell-based
Method in brief: as §1

[2] = tested on: Staphylococcus aureus S13E; experiment: MIC, standard agar-dilution assay (Table V); type: cell-based; details: Staphylococcus aureus, S13E
Experimental: (§2) Especially noteworthy is the improved activity against gram-negative bacteria for several derivatives when compared to the activity of OMT. […] The MIC's in Tables V and VI were determined by standard agar-dilution assays. The MIC's in Table VII were obtained using a conventional broth-dilution microtiter test.

[3] = tested on: Staphylococcus aureus V41; experiment: MIC, standard agar-dilution assay (Table V); type: cell-based; details: Staphylococcus aureus, V41
Experimental: as §2

[4] = tested on: Staphylococcus aureus X1.1; experiment: MIC, standard agar-dilution assay (Table V); type: cell-based; details: Staphylococcus aureus
Experimental: as §2

[5] = tested on: Staphylococcus epidermidis EPI1; experiment: MIC, standard agar-dilution assay (Table V); type: cell-based; details: Staphylococcus epidermidis
Experimental: as §2

[6] = tested on: Staphylococcus epidermidis EPI2; experiment: MIC, standard agar-dilution assay (Table V); type: cell-based; details: Staphylococcus epidermidis
Experimental: as §2

Streptococcus Group 9960 = experiment: MIC, standard agar-dilution assay (Table V); type: cell-based; details: GROUP9960
Experimental: as §2

[7] = tested on: Streptococcus Group D X66; experiment: MIC, standard agar-dilution assay (Table V); type: cell-based
Experimental: as §2

Escherichia coli TEM = experiment: MIC, standard agar-dilution assay (Table V); type: cell-based; details: Escherichia coli
Experimental: The MIC's in Tables V and VI were determined by standard agar-dilution assays. The MIC's in Table VII were obtained using a conventional broth-dilution microtiter test.

[8] = tested on: Streptococcus pneumoniae Park I; experiment: microbe, parasite or virus in culture; type: cell-based; details: Streptococcus pneumoniae, read-out: MIC
Experimental: as §2

Pasteurella multocida = experiment: Protection of one-day-old chicks against Pasteurella multocida infection (Table IX); type: in vivo; details: subcutaneous 30 mg/kg × 2, 1 and 4 hours post-challenge
Method in brief: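 One-day-old chicks were challenged subcutaneously with 0.1 ml of a twenty-hour tryptose broth culture of avian P. multocida. Compound was given subcutaneously at 30 mg/kg, 1 and 4 hours post-challenge, and protection against death was followed, with non-medicated infected chicks as controls.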

[9] = S. aureus X1.1, agar dilution, read-out: MIC
[10] = S. epidermidis EPI1, agar dilution, read-out: MIC
[11] = S. epidermidis EPI2, agar dilution, read-out: MIC
[12] = Streptococcus Group D X66, agar dilution, read-out: MIC
[13] = E. coli EC14, agar dilution, read-out: MIC
[14] = K. pneumoniae KAE, agar dilution, read-out: MIC
[15] = E. coli TEM, agar dilution, read-out: MIC
[16] = Streptococcus Group 9960, agar dilution, read-out: MIC
[17] = E. coli N10, agar dilution, read-out: MIC

Row | SMILES | MIC (Escherichia coli EC14; EC14) [µg/mL] | MIC (Escherichia coli N10; N10) [µg/mL] | MIC [1] [µg/mL] | MIC (Shigella sonnei N9) [µg/mL] | MIC [2] [µg/mL] | MIC [3] [µg/mL] | MIC [4, 9] [µg/mL] | MIC [5, 10] [µg/mL] | MIC [6, 11] [µg/mL] | MIC (Streptococcus Group 9960) [µg/mL] | MIC [7, 12] [µg/mL] | MIC (Escherichia coli TEM) [µg/mL] | MIC [8] [µg/mL] | Number of deaths/number treated (Pasteurella multocida) | MIC (Escherichia coli EC14; [13]) [µg/mL] | MIC [1, 14] [µg/mL] | MIC ([4]; X1.1) [µg/mL] | MIC [7] [µg/mL] | MIC (Escherichia coli TEM; [15]) [µg/mL] | MIC (Streptococcus Group 9960; [16]) [µg/mL] | further results
1 | CCC1OC(=O)CC(O)C(C)C(OC2OC(C)C(O)C(N(C)C)C2O)C(CC=O)CC(C)C(=O)C=CC(C)=CC1CSc1ccccc1 (stereo not shown) [Compound 2, 23-Deoxy-23-(phenyl)thio-OMT] | 32 (≈ 46.4 µM) | 32 (≈ 46.4 µM) | 64 (≈ 92.8 µM) | 16 (≈ 23.2 µM) | 0.06 (≈ 0.087 µM) | 0.125 (≈ 0.181 µM) | 0.125 (≈ 0.181 µM) | 0.125 (≈ 0.181 µM) | 0.125 (≈ 0.181 µM) | 0.5 (≈ 0.725 µM) | 0.06 (≈ 0.087 µM) | 8 (≈ 11.6 µM) | 0.06 (≈ 0.087 µM) | 10/10 |  |  |  |  |  |  | 
2 | CCC1OC(=O)CC(O)C(C)C(OC2OC(C)C(O)C(N(C)C)C2O)C(CC=O)CC(C)C(=O)C=CC(C)=CC1CSc1nnc(C)s1 (stereo not shown) [Compound 3, 23-Deoxy-23-(5-methyl-1,3,4-thiadiazol-2-yl)thio-OMT] |  | 64 (≈ 89.9 µM) |  | 64 (≈ 89.9 µM) | 0.25 (≈ 0.351 µM) | 0.25 (≈ 0.351 µM) |  | 0.125 (≈ 0.176 µM) | 0.25 (≈ 0.351 µM) | 0.25 (≈ 0.351 µM) |  |  | 0.06 (≈ 0.0843 µM) | 10/10 | 64 (≈ 89.9 µM) | > 128 | 0.25 (≈ 0.351 µM) | 0.25 (≈ 0.351 µM) | 32 (≈ 44.9 µM) |  | 
3 | CCC1OC(=O)CC(O)C(C)C(OC2OC(C)C(O)C(N(C)C)C2O)C(CC=O)CC(C)C(=O)C=CC(C)=CC1CSc1nnnn1C (stereo not shown) [Compound 5, 23-Deoxy-23-(1-methyltetrazol-5-yl)thio-OMT] | 64 (≈ 92 µM) | > 128 | > 128 | 64 (≈ 92 µM) | 0.5 (≈ 0.719 µM) | 0.5 (≈ 0.719 µM) |  | 0.25 (≈ 0.359 µM) | 0.5 (≈ 0.719 µM) |  | 0.5 (≈ 0.719 µM) |  | 0.06 (≈ 0.0862 µM) | 3/10 |  |  | 0.5 (≈ 0.719 µM) |  | 32 (≈ 46 µM) | 0.5 (≈ 0.719 µM) | 
4 | CCC1OC(=O)CC(O)C(C)C(OC2OC(C)C(O)C(N(C)C)C2O)C(CC=O)CC(C)C(=O)C=CC(C)=CC1CSC(C)=O (stereo not shown) [Compound 7, 23-Deoxy-23-(acetyl)thio-OMT] |  | 64 (≈ 97.6 µM) | > 128 | 64 (≈ 97.6 µM) | 0.125 (≈ 0.191 µM) | 0.25 (≈ 0.381 µM) |  |  |  | 0.25 (≈ 0.381 µM) | 0.5 (≈ 0.762 µM) |  | 0.06 (≈ 0.0915 µM) | 10/10 | 64 (≈ 97.6 µM) |  | 0.25 (≈ 0.381 µM) |  |  |  | MIC ([5]; EPI1): 0.125 µg/mL (≈ 0.191 µM); MIC ([6]; EPI2): 0.125 µg/mL (≈ 0.191 µM)
5 | CCC1OC(=O)CC(O)C(C)C(OC2OC(C)C(O)C(N(C)C)C2O)C(CC=O)CC(C)C(=O)C=CC(C)=CC1CN=[N+]=[N-] (stereo not shown) [Compound 8, 23-Deoxy-23-azido-OMT] |  |  |  | 32 (≈ 51.4 µM) | 0.25 (≈ 0.401 µM) | 0.25 (≈ 0.401 µM) | 0.125 (≈ 0.201 µM) | 0.125 (≈ 0.201 µM) |  |  |  | 16 (≈ 25.7 µM) | 0.06 (≈ 0.0963 µM) | 10/10 | 32 (≈ 51.4 µM) | > 128 |  | 0.25 (≈ 0.401 µM) |  | 0.5 (≈ 0.803 µM) | MIC (Escherichia coli N10; [17]): 32 µg/mL (≈ 51.4 µM); MIC ([6]; EPI2): 0.25 µg/mL (≈ 0.401 µM)
6 | CCC1OC(=O)CC(O)C(C)C(OC2OC(C)C(O)C(N(C)C)C2O)C(CC=O)CC(C)C(=O)C=CC(C)=CC1CF (stereo not shown) [Compound 15, 23-Deoxy-23-fluoro-OMT] |  |  | 64 (≈ 107 µM) | 32 (≈ 53.4 µM) | 0.5 (≈ 0.834 µM) | 0.5 (≈ 0.834 µM) | 0.25 (≈ 0.417 µM) | 0.25 (≈ 0.417 µM) | 0.5 (≈ 0.834 µM) | 0.5 (≈ 0.834 µM) |  | 8 (≈ 13.3 µM) |  |  | 32 (≈ 53.4 µM) |  |  | 0.5 (≈ 0.834 µM) |  |  | MIC (Escherichia coli N10; [17]): 32 µg/mL (≈ 53.4 µM); MIC ([8]; S. pneumoniae Park I, agar dilution): 0.125 µg/mL (≈ 0.208 µM)
